Laboratory results taken from US12577245B2, “Sulfonyl benzamide derivatives as Bcl-2 inhibitors” (ASCENTAGE PHARMA (SUZHOU) CO., LTD., priority 2021, dated 2026).

Legend:
MV-4-11 cells = test: CCK-8 cell viability assay in MV-4-11 cells; format: cell-based; settings: Homo sapiens, MV4-11, 72 h, 10% FBS, 3 days
Method in brief: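 MV-4-11 cells (20000/well) were exposed to serially diluted compound for 3 days at 37 °C. Viability was then measured with CCK-8 (1–4 h, absorbance 450 nm). IC50 was derived from readings normalized to vehicle.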

RS4; 11Bcl-2-G101V cells = test: CellTiter-Glo (CTG) cell viability assay in RS4;11-Bcl-2-G101V cells; format: cell-based; settings: 72 h, 10% FBS, 3 days
Method in brief: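 Engineered RS4;11 lines carrying Bcl-2 mutants, 10000 cells/well in RPMI-1640 with 10% FBS, exposed to serially diluted compound for 3 days at 37 °C, 5% CO2. Viability read by CellTiter-Glo luminescence, normalized to vehicle; IC50 calculated.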

Bcl-2 WT = Bcl-2 WT (Homo sapiens, UniProt P10415); test: Bcl-2 WT inhibition, fluorescence polarization (Flu-BIM tracer) binding assay; settings: FP; 20 nM Bcl2, 5 nM Flu-BIM, 1 h incubation; read-out: Bcl-2 w.t. (FP)
Bcl-2 WT, sequence (P10415 whole entry): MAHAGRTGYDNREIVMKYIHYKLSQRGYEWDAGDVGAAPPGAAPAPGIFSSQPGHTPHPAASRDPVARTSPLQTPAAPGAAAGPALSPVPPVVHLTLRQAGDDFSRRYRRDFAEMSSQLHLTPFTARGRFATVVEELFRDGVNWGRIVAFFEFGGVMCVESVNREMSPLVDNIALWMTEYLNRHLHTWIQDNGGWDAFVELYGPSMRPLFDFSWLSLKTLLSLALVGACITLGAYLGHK

Row | Compound | IC50 (MV-4-11 cells) [nM] | IC50 (RS4; 11Bcl-2-G101V cells) [nM] | IC50 (Bcl-2 WT) [nM]
1 | CC1(C)CCC(CN2CCN(c3ccc(C(=O)NS(=O)(=O)c4ccc(NC[C@H]5COCCO5)c([N+](=O)[O-])c4)c(Oc4cnc5[nH]ccc5c4)c3)CC2)=C(c2cc(-c3ccc(F)cc3)cs2)C1 [Example 33, (S)—N-((4-(((1,4-dioxan-2-yl)methyl)amino)-3-nitrophenyl)sulfonyl)-2-((1H-pyrrolo[2,3-b]pyridin-5-yl)oxy)-4-(4-((2-(4-(4-fluorophenyl)thiophen-2-yl)-4,4-dimethylcyclohex-1-en-1-yl)methyl)piperazin-1-yl)benzamide] | 6 | 630 | 23.9
2 | CC1(C)CCC(CN2CCN(c3ccc(C(=O)NS(=O)(=O)c4ccc(NCC5CCOCC5)c([N+](=O)[O-])c4)c(Oc4cnc5[nH]ccc5c4)c3)CC2)=C(c2cc(-c3ccccc3)cs2)C1 [Example 34, 2-((1H-pyrrolo[2,3-b]pyridin-5-yl)oxy)-4-(4-((4,4-dimethyl-2-(4-phenylthiophen-2-yl)cyclohex-1-en-1-yl)methyl)piperazin-1-yl)-N-((3-nitro-4-(((tetrahydro-2H-pyran-4-yl)methyl)amino)phenyl)sulfonyl)benzamide] | 18 | 1460 | 41.1
3 | CC1(C)CCC(CN2CCN(c3ccc(C(=O)NS(=O)(=O)c4ccc(NCC5CCOCC5)c([N+](=O)[O-])c4)c(Oc4cnc5[nH]ccc5c4)c3)CC2)=C(c2ccsc2-c2ccccc2)C1 [Example 35, 2-((1H-pyrrolo[2,3-b]pyridin-5-yl)oxy)-4-(4-((4,4-dimethyl-2-(2-phenylthiophen-3-yl)cyclohex-1-en-1-yl)methyl)piperazin-1-yl)-N-((3-nitro-4-(((tetrahydro-2H-pyran-4-yl)methyl)amino)phenyl)sulfonyl)benzamide] | 799 | 6160 | 40.4
4 | CC1(C)CCC(CN2CCN(c3ccc(C(=O)NS(=O)(=O)c4ccc(NC[C@H]5CC[C@@](C)(O)CC5)c([N+](=O)[O-])c4)c(Oc4cnc5[nH]ccc5c4)c3)CC2)=C(c2cc(-c3ccc(F)cc3)cs2)C1 [Example 36, 2-((1H-pyrrolo[2,3-b]pyridin-5-yl)oxy)-4-(4-((2-(4-(4-fluorophenyl)thiophen-2-yl)-4,4-dimethylcyclohex-1-en-1-yl)methyl)piperazin-1-yl)-N-((4-((((1s,4s)-4-hydroxy-4-methylcyclohexyl)methyl)amino)-3-nitrophenyl)sulfonyl)benzamide] | 36 | 570 | 36.3
5 | CC1(C)CCC(CN2CCN(c3ccc(C(=O)NS(=O)(=O)c4ccc(NC[C@H]5CC[C@](C)(O)CC5)c([N+](=O)[O-])c4)c(Oc4cnc5[nH]ccc5c4)c3)CC2)=C(c2cc(-c3ccc(F)cc3)cs2)C1 [Example 37, 2-((1H-pyrrolo[2,3-b]pyridin-5-yl)oxy)-4-(4-((2-(4-(4-fluorophenyl)thiophen-2-yl)-4,4-dimethylcyclohex-1-en-1-yl)methyl)piperazin-1-yl)-N-((4-((((1r,4r)-4-hydroxy-4-methylcyclohexyl)methyl)amino)-3-nitrophenyl)sulfonyl)benzamide] | 11 | 290 | 20.5
6 | CC1(C)CCC(CN2CCN(c3ccc(C(=O)NS(=O)(=O)c4ccc(NC[C@H]5COCCO5)c([N+](=O)[O-])c4)c(Oc4cnc5[nH]ccc5c4)c3)CC2)=C(c2cc(-c3ccc(Cl)cc3)cs2)C1 [Example 38, (S)—N-((4-(((1,4-dioxan-2-yl)methyl)amino)-3-nitrophenyl)sulfonyl)-2-((1H-pyrrolo[2,3-b]pyridin-5-yl)oxy)-4-(4-((2-(4-(4-chlorophenyl)thiophen-2-yl)-4,4-dimethylcyclohex-1-en-1-yl)methyl)piperazin-1-yl)benzamide] | 28 | 1640 | 20.2
7 | CC(C)c1ccccc1-c1csc(C2=C(CN3CCN(c4ccc(C(=O)NS(=O)(=O)c5ccc(NC[C@H]6COCCO6)c([N+](=O)[O-])c5)c(Oc5cnc6[nH]ccc6c5)c4)CC3)CCC(C)(C)C2)c1 [Example 39, (S)—N-((4-(((1,4-dioxan-2-yl)methyl)amino)-3-nitrophenyl)sulfonyl)-2-((1H-pyrrolo[2,3-b]pyridin-5-yl)oxy)-4-(4-((2-(4-(2-isopropylphenyl)thiophen-2-yl)-4,4-dimethylcyclohex-1-en-1-yl)methyl)piperazin-1-yl)benzamide] | 260 | 2310 | 31.6
8 | CC1(C)CCC(CN2CCN(c3ccc(C(=O)NS(=O)(=O)c4ccc(NC[C@H]5COCCO5)c([N+](=O)[O-])c4)c(Oc4cnc5[nH]ccc5c4)c3)CC2)=C(c2cc(-c3ccc(C(F)(F)F)cc3)cs2)C1 [Example 40, (S)—N-((4-(((1,4-dioxan-2-yl)methyl)amino)-3-nitrophenyl)sulfonyl)-2-((1H-pyrrolo[2,3-b]pyridin-5-yl)oxy)-4-(4-((4,4-dimethyl-2-(4-(4-(trifluoromethyl)phenyl)thiophen-2-yl)cyclohex-1-en-1-yl)methyl)piperazin-1-yl)benzamide] | 45 | 3550 | 40.2
9 | CC1(C)CCC(CN2CCN(c3ccc(C(=O)NS(=O)(=O)c4ccc(NC[C@H]5CC[C@](C)(O)CC5)c([N+](=O)[O-])c4)c(Oc4cnc5[nH]ccc5c4)c3)CC2)=C(c2cc(-c3ccc(C(F)(F)F)cc3)cs2)C1 [Example 41, 2-((1H-pyrrolo[2,3-b]pyridin-5-yl)oxy)-4-(4-((4,4-dimethyl-2-(4-(4-(trifluoromethyl)phenyl)thiophen-2-yl)cyclohex-1-en-1-yl)methyl)piperazin-1-yl)-N-((4-((((1r,4r)-4-hydroxy-4-methylcyclohexyl)methyl)amino)-3-nitrophenyl)sulfonyl)benzamide] | 50 | 3230 | 44
10 | CC1(C)CCC(CN2CCN(c3ccc(C(=O)NS(=O)(=O)c4ccc(NC[C@H]5COCCO5)c([N+](=O)[O-])c4)c(Oc4cnc5[nH]ccc5c4)c3)CC2)=C(c2cc(-c3ccc(F)cc3F)cs2)C1 [Example 42, (S)—N-((4-(((1,4-dioxan-2-yl)methyl)amino)-3-nitrophenyl)sulfonyl)-2-((1H-pyrrolo[2,3-b]pyridin-5-yl)oxy)-4-(4-((2-(4-(2,4-difluorophenyl)thiophen-2-yl)-4,4-dimethylcyclohex-1-en-1-yl)methyl)piperazin-1-yl)benzamide] | 26 | 480 | 38.7
11 | CC1(C)CCC(CN2CCN(c3ccc(C(=O)NS(=O)(=O)c4ccc(NC[C@H]5CC[C@](C)(O)CC5)c([N+](=O)[O-])c4)c(Oc4cnc5[nH]ccc5c4)c3)CC2)=C(c2cc(-c3ccc(F)cc3F)cs2)C1 [Example 43, 2-((1H-pyrrolo[2,3-b]pyridin-5-yl)oxy)-4-(4-((2-(4-(2,4-difluorophenyl)thiophen-2-yl)-4,4-dimethylcyclohex-1-en-1-yl)methyl)piperazin-1-yl)-N-((4-((((1r,4r)-4-hydroxy-4-methylcyclohexyl)methyl)amino)-3-nitrophenyl)sulfonyl)benzamide] | 8 | 280 | 21.1
12 | CC1(C)CCC(CN2CCN(c3ccc(C(=O)NS(=O)(=O)c4ccc(NC[C@H]5COCCO5)c([N+](=O)[O-])c4)c(Oc4cnc5[nH]ccc5c4)c3)CC2)=C(c2cc(-c3ccc(Cl)cc3F)cs2)C1 [Example 44, (S)—N-((4-(((1,4-dioxan-2-yl)methyl)amino)-3-nitrophenyl)sulfonyl)-2-((1H-pyrrolo[2,3-b]pyridin-5-yl)oxy)-4-(4-((2-(4-(4-chloro-2-fluorophenyl)thiophen-2-yl)-4,4-dimethylcyclohex-1-en-1-yl)methyl)piperazin-1-yl)benzamide] | 31 | 830 | 31
13 | CC1(C)CCC(CN2CCN(c3ccc(C(=O)NS(=O)(=O)c4ccc(NC[C@H]5CC[C@](C)(O)CC5)c([N+](=O)[O-])c4)c(Oc4cnc5[nH]ccc5c4)c3)CC2)=C(c2cc(-c3cc(F)c(F)c(F)c3)cs2)C1 [Example 45, 2-((1H-pyrrolo[2,3-b]pyridin-5-yl)oxy)-4-(4-((4,4-dimethyl-2-(4-(3,4,5-trifluorophenyl)thiophen-2-yl)cyclohex-1-en-1-yl)methyl)piperazin-1-yl)-N-((4-((((1r,4r)-4-hydroxy-4-methylcyclohexyl)methyl)amino)-3-nitrophenyl)sulfonyl)benzamide] | 57 | 1680 | 33.8
14 | CC1(C)CCC(CN2CCN(c3ccc(C(=O)NS(=O)(=O)c4ccc(NC[C@H]5CC[C@](C)(O)CC5)c([N+](=O)[O-])c4)c(Oc4cnc5[nH]ccc5c4)c3)CC2)=C(c2cc(-c3ccc(F)c(F)c3F)cs2)C1 [Example 46, 2-((1H-pyrrolo[2,3-b]pyridin-5-yl)oxy)-4-(4-((4,4-dimethyl-2-(4-(2,3,4-trifluorophenyl)thiophen-2-yl)cyclohex-1-en-1-yl)methyl)piperazin-1-yl)-N-((4-((((1r,4r)-4-hydroxy-4-methylcyclohexyl)methyl)amino)-3-nitrophenyl)sulfonyl)benzamide] | 9 | 230 | 22.5
15 | CC1(C)CCC(CN2CCN(c3ccc(C(=O)NS(=O)(=O)c4ccc(NC[C@H]5COCCO5)c([N+](=O)[O-])c4)c(Oc4cnc5[nH]ccc5c4)c3)CC2)=C(c2cc(-c3ccc(C(F)F)cc3)cs2)C1 [Example 48, (S)—N-((4-(((1,4-dioxan-2-yl)methyl)amino)-3-nitrophenyl)sulfonyl)-2-((1H-pyrrolo[2,3-b]pyridin-5-yl)oxy)-4-(4-((2-(4-(4-(difluoromethyl)phenyl)thiophen-2-yl)-4,4-dimethylcyclohex-1-en-1-yl)methyl)piperazin-1-yl)benzamide] | 9 | 810 | 20.2
